Measured values as given in publication PMC10432564, “Pharmacological perturbation of the phase-separating protein SMNDC1” (Nature Communications, 2023).

Columns and labels:
[1] = Solubility in aqueous, buffered solution for NMR; format: physicochemical
Description: All NMR acquisition was performed in 3 mm tubes at 25 °C. […] All titration measurements were performed in 20 mM sodium phosphate buffer pH 6.5, 50 mM NaCl, 4 mM dithiothreitol and 10% (v/v) D2O as deuterium lock. Aqueous, buffered inhibitor stock solutions of maximal 20 mM concentration were prepared and carefully adjusted to pH 6.5. Inhibitor concentration was measured by addition of 100 µM DSS, peak integration and calculating with C=I⋅NDSS⋅CDSS/IDSS⋅N where C, I, N and CDSS, IDSS, NDSS is the concentration, peak intensity, and number of protons of inhibitor and DSS, respectively.

SMNDC1-GFP αTC1 clones = assay: Live imaging of endogenously tagged SMNDC1-GFP; format: cell-based, mouse; settings: 50 µM, 12–16 h
Description: Cell lines with fluorescent tags in the endogenous intron loci of different genes were generated as described in Serebrenik et al., and Reicher et al.[39],[74]. Cells were transiently transfected using Avalanche-Everyday Transfection Reagent with three plasmids in parallel: (1) the donor plasmid containing the artificial intron with splice acceptor and splice donor site, the fluorescent tag GFP or RFP, and a possible correction for the frame of the targeted intron, (2) a pX330 backbone containing Cas9 and the gRNA against the donor plasmid, and (3) a plasmid expressing the gRNA against the target intron (see table below). After 3–5 days, GFP- and/or RFP-positive cells were sorted on a SONY SH800 Cell Sorter to get fluorescent single cell clones. Clones were validated for the correct integration of the intron-tag via comparison of live cell images to publicly available or in-house IF images, genomic DNA PCR amplification of the respective loci, and western blots with antibodies against the target protein and/or the fluorescent tag.
Cells were imaged on a PerkinElmer Opera Phenix automated microscope with 500 ms exposure time in either GFP or RFP channel, or on a Zeiss LSM 980 microscope. For condition-independent identification nuclear markers such as Hoechst or DRAQ5^TM were used.
Images were analyzed using the high-content image acquisition and analysis software Harmony® 4.9 developed by PerkinElmer. First, nuclei were identified in the channel of the nuclear marker (DAPI/ Hoechst/ DRAQ5^TM) (with Method C, Common Threshold 0.75, Area > 10 µm^2). After the identification of nuclei, their corresponding cytoplasm was also identified using the respective nucleic acid marker (with Method A, Individual Threshold 0.15). Even though the highest staining of these nuclear markers is obviously detected in the nucleus they still produce a significant staining of the cytoplasm above background. After defining the respective cell areas, mean intensity in the different channels was measured. Finally, spots were identified with the according “Spots” algorithm (with Method A, Relative Spot Intensity > 0.053, Splitting Sensitivity: 1.0).

APEX2-SMNDC1^FL = molecular target: T1, APEX2-SMNDC1^FL (Homo sapiens, UniProt O75940); assay: APEX2-SMNDC1^FL proximity labeling, biotin enrichment and mass spectrometry; format: cell-based, mouse; settings: compound-treated over DMSO; adjusted p-value<0.05, |log2FC|≥2
T1 construct: In addition to full-length SMNDC1 (APEX2-SMNDC1^FL); expressed in transfected cells
T1 sequence (O75940 1-238): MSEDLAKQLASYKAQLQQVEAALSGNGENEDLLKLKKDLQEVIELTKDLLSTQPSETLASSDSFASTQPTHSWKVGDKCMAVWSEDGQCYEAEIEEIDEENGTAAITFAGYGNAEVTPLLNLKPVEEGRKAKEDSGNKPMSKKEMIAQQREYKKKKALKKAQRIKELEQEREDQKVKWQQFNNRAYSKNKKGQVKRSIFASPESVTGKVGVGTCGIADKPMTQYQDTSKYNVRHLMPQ
Description: Proximity labeling with APEX2 was done following the described protocol for imaging and proteomic analysis. Cell lines with a stable expression of APEX2-fusion proteins were generated using lentiviral transduction of plasmids generated with Gateway cloning of the respective fusion protein into pLEX305. pLEX_305 was a gift from David Root (Addgene plasmid # 41390; http://n2t.net/addgene:41390; RRID:Addgene_41390). The APEX2 sequence was amplified from APEX2-csGBP which was a gift from Rob Parton (Addgene plasmid # 108874; http://n2t.net/addgene:108874; RRID:Addgene_108874). Briefly, cells were incubated with 0.5 mM biotin-phenol for 30 min, after which 1 mM H2O2 was added for exactly 1 min. Afterwards the labeling reaction was quenched by 3 quick washes with Quenching solution (10 mM sodium ascorbate, 10 mM sodium azide, 5 mM Trolox in PBS). […]
After proximity labeling, cells (~10 Mio. cells, 15 cm dish) were harvested, washed 2x in PBS, snap frozen and stored at −80 °C. […] After quantification of protein amounts by Pierce™ 660 nm Protein Assay, samples were normalized to 500 µg total protein input in a final volume of 300 µl lysis buffer. […]
Following data acquisition, acquired raw data files were processed using the Proteome Discoverer v.2.4.1.15 platform, choosing a TMT16plex quantification method. […]

SMNDC1 Tudor domain = molecular target: T2, SMNDC1 Tudor domain (Homo sapiens, UniProt O75940); assay: AlphaScreen, SMNDC1 Tudor domain / sDMA-peptide interaction
T2 sequence (O75940 65-128): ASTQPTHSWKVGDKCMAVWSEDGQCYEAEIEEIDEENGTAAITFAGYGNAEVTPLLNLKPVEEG
Description: To pharmacologically perturb SMNDC1 function, we set out to identify small molecule inhibitors of SMNDC1’s Tudor domain based on perturbing its interaction with a dimethylarginine peptide. To establish an AlphaScreen[50], we coupled donor beads to purified SMNDC1’s (or SMN’s) Tudor domain via a His-Tag and acceptor beads to a biotinylated peptide corresponding to the C-terminal region of the Small nuclear ribonucleoprotein Sm D3 containing four sDMAs (Fig. 4a). […] To identify ideal concentrations for screening, we performed a cross-titration of Tudor domains and binding peptides (Supplementary Fig. 3b).
The AlphaScreen was conducted in 20 mM sodium phosphate pH 6.5, 50 mM NaCl, Tween 0.01%, BSA 0.1%. Protein concentration was optimized for each batch of purified protein. Optimal concentration was chosen at the lowest concentration with ~80% of maximum signal. […] In the first step, 10 µl of the protein solution containing either SMNDC1’s or SMN’s Tudor domain coupled to a 6xHis-Tag were distributed to 384-well plates pre-spotted with compounds and controls, shaken and incubated for 30 min at RT. Afterwards, 10 µl of peptide solution was added to each well and incubated for 1 h at RT. Finally, 5 µl of a solution containing both Streptavidin Donor and nickel chelate (Ni-NTA) Acceptor beads was added and again incubated for 1 h at RT.
Category Parameter Description
Assay Type of assay In vitro AlphaScreen / luminescence proximity
Target Tudor domain of SMNDC1
Primary measurement Decrease in luminescence signal reflecting
disruption of heterodimeric complex between
SMNDC1-Tudor domain and a peptide
corresponding to the C-terminus of Small nuclear
ribonucleoprotein Sm D3 containing 4 sDMAs
Key reagents AlphaScreen no-wash assay kit containing
Streptavidin Donor beads and nickel chelate (Ni-
NTA) AlphaScreen Acceptor beads (PerkinElmer
Assay protocol Described in Methods section
Screen Format PerkinElmer OptiPlate-384 well plate
Concentration(s) tested Typically 10 μM (0.1% DMSO)
Plate controls 32 positive control wells (Mitoxantrone, quencher),
32 negative control wells (DMSO)
Reagent/ compound dispensing system Echo 520 Liquid Handler Multidrop™ Combi
Normalization Raw signal was normalized plate-specifically by
correcting row and column-specific mean signals to
the mean signal of the entire plate, each after
removing the highest and lowest 25% of values. Raw
signal was then converted to percent of control
signal, but linear regression to plate-specific mean
signal of DMSO wells (set to 100 percent of control)
and positive control wells (set to 0% of control), after
outlier removal using a Grubbs test.
unspecific quenchers), Secondary screen (with

## CN(C)S(=O)(=O)c1ccc(C(=O)Nc2nc(-c3ccccn3)cs2)cc1 [compound 1]
[1]
  solubility: insufficient solubility
SMNDC1-GFP αTC1 clones
  SMNDC1-GFP spots within the nucleus: less spots were detected within the nucleus
  SMNDC1 within the nucleus (nuclear SMNDC1-GFP): loss of SMNDC1 within the nucleus
APEX2-SMNDC1^FL
  proteins significantly depleted: 126 proteins
  proteins significantly enriched: 6 proteins
SMNDC1 Tudor domain
  IC50: 500 nM
